According to patent US20230355613A1, “METHODS FOR TREATING PANCREATIC DUCTAL ADENOCARCINOMA” (HEALTH RESEARCH, INC., priority 2022, published 2023):
Entries after “also recorded” stand apart in the source; their conditions may differ.

Columns and labels:
HPNE cells = test: Cell proliferation time course (CellTiter-Glo, days 0, 2, 4, 6); format: cell-based, human; settings: increasing concentrations, days 0-6
Description: (§1) PDAC cells are sensitive to chemical inhibition of CPSF3. CPSF3 was recently identified as the target for the small molecule JTE-607. JTE-607 is a prodrug that, when metabolized by the ester hydrolyzing enzyme carboxylesterase 1 (CES1), binds to CPSF3 and inhibits its catalytic activity, impairing the processing of newly synthesized mRNAs. As genetic depletion of CPSF3 attenuated PDAC cell proliferation (FIG. 1), it 2as hypothesized that pharmacologic inhibition of CPSF3 with JTE-607 could represent a novel therapeutic approach in PDAC. The sensitivity of multiple human pancreatic cell lines, both non-transformed and PDAC, to JTE-607 in a 72-hour dose-response cell viability assay was examined. […] To examine if sensitivity to CPSF3 inhibition was associated with proliferation rate, the relationship between cell line doubling time and JTE-607 sensitivity was assessed. […] Next, the effect of JTE-607 on cell proliferation by treating cells with increasing concentrations of JTE-607 and assessing cell viability in a time-dependent fashion (FIGS. 2C-2E) was determined. […] Finally, the effect of JTE-607 on colony formation in PDAC cell lines was tested. […] Therefore, JTE-607 selectively attenuates proliferation of PDAC cells over non-transformed pancreatic cells.
(§2) JTE-607 studies. For dose-response measurements, cells were seeded at a density of 1000 cells per well in a 96-well white plate. The next day, JTE-607 was titrated over a range of concentrations using the Tecan D300e Digital Dispenser and cell viability was measured 72 hours post drug titration using a CellTiter-Glo Luminescent Cell Viability Assay Kit (Promega). For cell proliferation experiments, cells were seeded at a density of 250 cells per well in a 96-well white plate. DMSO control or JTE-607 was dispensed at varying concentrations and proliferation was measured using CellTiter-Glo Assay at days 0, 2, 4 and 6. For clonogenicity experiments, cells were seeded at a concentration of 500 cells per well and treated with different concentrations of JTE-607. […] Colony area was measured using ImageJ software. […]

Panc1 cells = test: as above; format: cell-based, human; settings: increasing concentrations, days 0-6, dose-dependent
Description: as §1, §2

MiaPaCa2 cells = test: as above; format: cell-based, human; settings: increasing concentrations, days 0-6, dose-dependent
Description: as §1, §2

xenograft models = xenograft models in vivo; cited from earlier work
PDAC cells = test: BrdU incorporation assay; format: cell-based; settings: within 8 hours
Method: Finally, we sought to determine how JTE-607-mediated depletion of RD histones led to defects in cell viability. As RD histones are required for cell cycle progression, we assessed the effects of JTE-607 on cell cycle distribution. […] In contrast, JTE-607 arrested Panc1 and MiaPaCa2 PDAC cells in S-phase of the cell cycle within 24 hours (FIGS. 7A and 7B). To corroborate the impact of CPSF3 knockdown on cell cycle, CPSF3 was transiently knocked-down with siRNA in Panc1 and HPNE cells (FIGS. 13D, 7C). CPSF3 knockdown induced cell cycle arrest in Panc1 cells with minimal effect on HPNE cells (FIGS. 7D and 7E). However, unlike CPSF3 inhibition-induced cell cycle arrest at S-phase, CPSF3 knockdown cells arrested at G2. […] To more specifically investigate the timing and extent of S-phase arrest upon JTE-607 treatment, BrdU incorporation was examined in a time-dependent manner (FIG. 7F). […] This is in support of previous reports where histone defects slow the progression of cells during S-phase. Therefore, JTE-607 destabilizes chromatin and attenuates PDAC cell proliferation through S-phase cell cycle arrest.
BrdU incorporation assay. […] Cells were analyzed by flow cytometry immediately and a compensation step was performed. Data were analyzed by FCS Express software (v7.06.0015).

PDAC cell lines = test: Clonogenic growth (colony formation) assay; format: cell-based, human; settings: all PDAC cell lines tested, 11-14 days
Description: PDAC cells are sensitive to chemical inhibition of CPSF3. CPSF3 was recently identified as the target for the small molecule JTE-607. JTE-607 is a prodrug that, when metabolized by the ester hydrolyzing enzyme carboxylesterase 1 (CES1), binds to CPSF3 and inhibits its catalytic activity, impairing the processing of newly synthesized mRNAs. As genetic depletion of CPSF3 attenuated PDAC cell proliferation (FIG. 1), it 2as hypothesized that pharmacologic inhibition of CPSF3 with JTE-607 could represent a novel therapeutic approach in PDAC. The sensitivity of multiple human pancreatic cell lines, both non-transformed and PDAC, to JTE-607 in a 72-hour dose-response cell viability assay was examined. […] To examine if sensitivity to CPSF3 inhibition was associated with proliferation rate, the relationship between cell line doubling time and JTE-607 sensitivity was assessed. […] Next, the effect of JTE-607 on cell proliferation by treating cells with increasing concentrations of JTE-607 and assessing cell viability in a time-dependent fashion (FIGS. 2C-2E) was determined. […]
JTE-607 studies. […] The next day, JTE-607 was titrated over a range of concentrations using the Tecan D300e Digital Dispenser and cell viability was measured 72 hours post drug titration using a CellTiter-Glo Luminescent Cell Viability Assay Kit (Promega). […] Colony area was measured using ImageJ software. […]

HeLa-TI cells = test: Silenced GFP reporter derepression (chromatin destabilization) by microscopy and flow cytometry; format: cell-based; settings: dose- and time-dependent
Method: Therefore, a Micrococcal Nuclease (MNase) assay was performed to assess relative chromatin condensation. In this assay, protein-free DNA is digested by MNase, producing DNA fragmentation patterns that are indicators of whether chromatin is in a condensed or relaxed state. […] To assess chromatin destabilization in a living cell, the HeLa-TI cell line model that has a silenced GFP reporter within a heterochromatic region of the genome was utilized. […] Therefore, GFP expression in HeLa-TI cells was monitored upon JTE-607 treatment by both fluorescence microscopy and flow cytometry.

[1] = healthy human volunteers; cited from earlier work

In the case of `CCOC(=O)[C@H](Cc1ccccc1)NC(=O)c1cc(Cl)c(OCCN2CCN(C)CC2)c(Cl)c1O` [JTE-607], the effect on proliferation (HPNE cells) is reported as “no effect on proliferation”, the effect on proliferation (Panc1 cells) is reported as “significantly attenuated” and the effect on proliferation (MiaPaCa2 cells) is reported as “significantly attenuated”. For the same compound, the “survival of tumor-bearing mice” value (xenograft models) was “prolongs survival”, the “cell cycle arrest phase (BrdU incorporation)” value (PDAC cells) was “early to mid S-phase” and the colony formation (PDAC cell lines) was “significantly decreased colony formation”. The GFP expression (HeLa-TI cells) was “induced GFP expression to levels comparable with CBL0137” and the adverse events [1] was “no serious adverse effects; also recorded: no severe adverse events reported”.
